# Active and inactive are the calls of the source. The calls are words filed in the database; no cut-off is given here.
# How the values were obtained:
# [1] = target: Protein kinase C theta type (Homo sapiens, UniProt Q04759); assay: Inhibition of PKCtheta (unknown origin)
# [2] = Drug concentration in plasma of C57BL6 mouse at 0.3 mg/kg, sc; type: ADME, organism-based; conditions: in vivo
# [3] = target: AP2-associated protein kinase 1 (Mus musculus) (UniProt Q3UHJ0); assay: In vivo inhibition of AAK1 in C57BL6 mouse assessed as suppression of mu2 phosphorylation in brain lysate at 30 mg/kg, sc measured after 30 mins by Western blot analysis relative to control; type: functional, organism-based
# [4] = target: Serine/threonine-protein kinase haspin (Homo sapiens, UniProt Q8TF76); assay: Inhibition of wild-type human partial length HASPIN (I452 to K798 residues) expressed in mammalian expression system by Kinomescan method relative to control
# [5] = Drug concentration in Sprague-Dawley rat plasma at 30 mg/kg, sc measured after 190 mins; type: ADME, organism-based
# [6] = Unbound drug concentration in brain of Sprague-Dawley rat model of chronic constriction injury-induced neuropathic pain at 30 mg/kg, sc; type: ADME, organism-based; conditions: in vivo
# [7] = system: Mus musculus; assay: Antinociceptive activity against formalin-induced nociceptive behavior in C57BL6 mouse assessed as reduction in phase 2 hind paw licking/biting at 30 mg/kg, sc administered 60 mins prior to formalin challenge by formalin test; type: functional, organism-based
# [8] = Ratio of drug concentration in brain to plasma of Sprague-Dawley rat model of chronic constriction injury-induced neuropathic pain at 60 mg/kg, sc measured after 240 mins; type: ADME, organism-based; conditions: read-out: BPR
# [9] = Unbound drug concentration in plasma of Sprague-Dawley rat model of chronic constriction injury-induced neuropathic pain at 1 mg/kg, sc; type: ADME, organism-based; conditions: in vivo
# [10] = Drug concentration in brain of Sprague-Dawley rat model of chronic constriction injury-induced neuropathic pain at 30 mg/kg, sc; type: ADME, organism-based; conditions: in vivo, read-out: Ct
# [11] = target: Citron Rho-interacting kinase (Homo sapiens, UniProt O14578); assay: Inhibition of CRIK (unknown origin) by Kinomescan method
# [12] = Aqueous solubility of the compound at pH 1; type: physicochemical
# [13] = target: Phosphatidylinositol 5-phosphate 4-kinase type-2 beta (Homo sapiens) (UniProt P78356); assay: Inhibition of wild-type human full length PIP5K2B (M1 to T416 residues) expressed in bacterial expression system assessed as residual binding level at 1 uM by Kinomescan method relative to control
# [14] = Permeability of the compound at pH 5.5 incubated for 4 hrs by PAMPA-based UV spectrophotometry; type: ADME; conditions: read-out: permeability
# [15] = target: cAMP-dependent protein kinase catalytic subunit PRKX (Homo sapiens) (UniProt P51817); assay: Inhibition of wild-type human partial length PRKX (M1 to F358 residues) expressed in bacterial expression system assessed as residual binding level at 1 uM by Kinomescan method relative to control
# [16] = target: AP2-associated protein kinase 1 (Mus musculus) (UniProt Q3UHJ0); assay: In vivo inhibition of AAK1 in C57BL6 mouse assessed as suppression of mu2 phosphorylation in brain lysate at 30 mg/kg, sc measured; type: functional, organism-based
# [17] = target: AP2-associated protein kinase 1 (Homo sapiens, UniProt Q2M2I8); assay: Inhibition of recombinant GST-Xa-tagged human AAK1 (30 to 330 residues) using 5-FAM-labelled Alla-KEEQSQITSQVTGQIGWR-NH2 peptide as substrate incubated for 3 hrs in presence of ATP by electrophoretic analysis
# [18] = target: G protein-coupled receptor kinase 4 (Homo sapiens) (UniProt P32298); assay: Inhibition of wild-type human full length GRK4 (M1 to C578 residues) expressed in bacterial expression system assessed as residual binding level at 1 uM by Kinomescan method relative to control
# [19] = target: cAMP-dependent protein kinase catalytic subunit PRKX (Homo sapiens, UniProt P51817); assay: Inhibition of wild-type human partial length PRKX (M1 to F358 residues) expressed in bacterial expression system by Kinomescan method
# [20] = Drug concentration in plasma of Sprague-Dawley rat model of chronic constriction injury-induced neuropathic pain at 10 mg/kg, sc; type: ADME, organism-based; conditions: in vivo
# [21] = target: AP2-associated protein kinase 1 (Mus musculus) (UniProt Q3UHJ0); assay: In vivo inhibition of AAK1 in C57BL6 mouse assessed as suppression of mu2 phosphorylation in brain lysate at 10 mg/kg, sc measured after 30 mins by Western blot analysis relative to control; type: functional, organism-based
# Chain of AP2-associated protein kinase 1 (Mus musculus) (Q3UHJ0 whole entry, looked up, the tested form may be a part): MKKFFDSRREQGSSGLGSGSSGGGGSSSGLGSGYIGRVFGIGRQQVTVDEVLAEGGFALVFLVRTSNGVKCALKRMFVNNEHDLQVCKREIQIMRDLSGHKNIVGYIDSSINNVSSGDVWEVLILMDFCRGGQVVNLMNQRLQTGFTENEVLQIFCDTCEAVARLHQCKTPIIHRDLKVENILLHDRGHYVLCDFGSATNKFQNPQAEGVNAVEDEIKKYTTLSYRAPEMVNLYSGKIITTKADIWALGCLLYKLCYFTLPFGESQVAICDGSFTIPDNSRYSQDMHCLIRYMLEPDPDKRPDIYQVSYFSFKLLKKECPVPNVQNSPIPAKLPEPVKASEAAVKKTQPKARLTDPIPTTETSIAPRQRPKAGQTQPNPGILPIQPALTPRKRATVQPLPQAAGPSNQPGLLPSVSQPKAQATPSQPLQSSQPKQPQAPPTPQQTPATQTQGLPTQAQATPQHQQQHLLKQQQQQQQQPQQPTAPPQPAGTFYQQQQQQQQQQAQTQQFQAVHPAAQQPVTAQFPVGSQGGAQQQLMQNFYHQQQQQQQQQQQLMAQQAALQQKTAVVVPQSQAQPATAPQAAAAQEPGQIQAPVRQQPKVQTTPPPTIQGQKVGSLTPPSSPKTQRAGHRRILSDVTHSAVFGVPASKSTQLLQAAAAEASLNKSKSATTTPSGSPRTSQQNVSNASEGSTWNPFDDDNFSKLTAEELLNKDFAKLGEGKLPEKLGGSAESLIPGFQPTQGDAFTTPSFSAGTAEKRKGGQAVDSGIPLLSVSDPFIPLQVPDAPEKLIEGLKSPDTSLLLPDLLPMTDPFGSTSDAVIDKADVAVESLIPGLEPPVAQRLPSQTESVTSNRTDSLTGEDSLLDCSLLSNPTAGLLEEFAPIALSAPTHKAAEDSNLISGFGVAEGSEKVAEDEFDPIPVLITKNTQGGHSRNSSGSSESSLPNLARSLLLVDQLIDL
# Chain of Citron Rho-interacting kinase (O14578 whole entry): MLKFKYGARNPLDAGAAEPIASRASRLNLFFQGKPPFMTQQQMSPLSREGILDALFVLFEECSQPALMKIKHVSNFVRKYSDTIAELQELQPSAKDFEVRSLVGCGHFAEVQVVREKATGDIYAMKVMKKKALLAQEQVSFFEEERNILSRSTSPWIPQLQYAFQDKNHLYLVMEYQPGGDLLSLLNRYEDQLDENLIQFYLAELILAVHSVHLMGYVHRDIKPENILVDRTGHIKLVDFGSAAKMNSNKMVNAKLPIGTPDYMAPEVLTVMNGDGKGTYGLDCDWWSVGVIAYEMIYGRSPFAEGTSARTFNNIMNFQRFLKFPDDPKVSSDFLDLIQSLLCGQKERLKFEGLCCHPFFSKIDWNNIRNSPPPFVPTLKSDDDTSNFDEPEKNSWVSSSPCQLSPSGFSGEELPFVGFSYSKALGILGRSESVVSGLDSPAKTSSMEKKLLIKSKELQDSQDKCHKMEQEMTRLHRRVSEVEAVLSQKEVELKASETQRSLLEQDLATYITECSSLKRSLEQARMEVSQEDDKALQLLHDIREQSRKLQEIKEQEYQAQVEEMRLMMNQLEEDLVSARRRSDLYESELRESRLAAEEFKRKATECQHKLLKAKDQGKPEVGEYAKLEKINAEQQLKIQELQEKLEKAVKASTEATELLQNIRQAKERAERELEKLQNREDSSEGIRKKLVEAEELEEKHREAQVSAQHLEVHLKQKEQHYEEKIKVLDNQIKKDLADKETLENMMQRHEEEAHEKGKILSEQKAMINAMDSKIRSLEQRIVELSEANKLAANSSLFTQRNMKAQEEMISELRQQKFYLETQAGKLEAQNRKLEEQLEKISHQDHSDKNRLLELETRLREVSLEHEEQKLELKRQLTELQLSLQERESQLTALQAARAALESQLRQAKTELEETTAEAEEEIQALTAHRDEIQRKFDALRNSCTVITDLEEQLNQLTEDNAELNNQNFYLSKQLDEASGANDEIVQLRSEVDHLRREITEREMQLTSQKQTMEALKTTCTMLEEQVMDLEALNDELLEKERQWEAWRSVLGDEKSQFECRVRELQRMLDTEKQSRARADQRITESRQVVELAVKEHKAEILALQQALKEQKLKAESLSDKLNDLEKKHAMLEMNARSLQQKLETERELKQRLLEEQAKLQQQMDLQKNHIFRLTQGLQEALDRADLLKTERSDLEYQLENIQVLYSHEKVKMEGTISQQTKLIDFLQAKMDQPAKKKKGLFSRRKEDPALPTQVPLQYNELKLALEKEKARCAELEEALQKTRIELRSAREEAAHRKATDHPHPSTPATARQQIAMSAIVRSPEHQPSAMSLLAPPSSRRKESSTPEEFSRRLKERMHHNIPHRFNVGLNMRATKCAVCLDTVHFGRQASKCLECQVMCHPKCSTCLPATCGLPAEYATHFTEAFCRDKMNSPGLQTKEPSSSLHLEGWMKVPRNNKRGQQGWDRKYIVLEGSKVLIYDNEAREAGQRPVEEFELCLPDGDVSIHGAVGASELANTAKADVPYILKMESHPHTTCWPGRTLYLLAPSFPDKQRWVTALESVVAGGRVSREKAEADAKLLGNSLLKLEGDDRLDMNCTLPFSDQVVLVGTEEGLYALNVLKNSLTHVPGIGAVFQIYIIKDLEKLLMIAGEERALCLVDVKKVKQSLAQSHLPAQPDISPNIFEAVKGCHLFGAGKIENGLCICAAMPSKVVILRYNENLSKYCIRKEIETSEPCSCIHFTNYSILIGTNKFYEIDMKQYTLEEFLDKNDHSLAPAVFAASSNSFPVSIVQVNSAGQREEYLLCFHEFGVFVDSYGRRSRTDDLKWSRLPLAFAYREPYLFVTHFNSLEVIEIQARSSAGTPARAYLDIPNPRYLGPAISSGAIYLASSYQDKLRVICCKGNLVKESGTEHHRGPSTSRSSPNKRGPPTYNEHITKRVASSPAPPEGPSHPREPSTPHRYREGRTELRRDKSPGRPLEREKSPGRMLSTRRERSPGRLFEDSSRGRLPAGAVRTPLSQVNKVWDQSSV
# Chain of G protein-coupled receptor kinase 4 (Homo sapiens) (P32298 whole entry, looked up, the tested form may be a part): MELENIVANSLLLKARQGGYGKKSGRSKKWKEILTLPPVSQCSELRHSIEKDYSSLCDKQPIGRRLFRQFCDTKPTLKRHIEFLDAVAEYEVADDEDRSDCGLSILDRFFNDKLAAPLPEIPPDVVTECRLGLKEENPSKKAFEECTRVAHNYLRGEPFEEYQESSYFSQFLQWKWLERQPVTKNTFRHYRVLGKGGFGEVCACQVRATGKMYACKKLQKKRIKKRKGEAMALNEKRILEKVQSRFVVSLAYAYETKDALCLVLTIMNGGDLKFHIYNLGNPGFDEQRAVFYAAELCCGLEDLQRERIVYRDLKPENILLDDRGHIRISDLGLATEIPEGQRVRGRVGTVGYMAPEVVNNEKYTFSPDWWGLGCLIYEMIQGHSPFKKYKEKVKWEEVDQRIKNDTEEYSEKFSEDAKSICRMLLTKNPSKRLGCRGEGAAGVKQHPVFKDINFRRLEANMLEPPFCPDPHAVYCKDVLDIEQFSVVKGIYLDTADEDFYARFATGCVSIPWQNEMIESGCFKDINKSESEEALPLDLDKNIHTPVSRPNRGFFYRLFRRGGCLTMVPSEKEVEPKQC
# Chain of Protein kinase C theta type (Q04759 whole entry): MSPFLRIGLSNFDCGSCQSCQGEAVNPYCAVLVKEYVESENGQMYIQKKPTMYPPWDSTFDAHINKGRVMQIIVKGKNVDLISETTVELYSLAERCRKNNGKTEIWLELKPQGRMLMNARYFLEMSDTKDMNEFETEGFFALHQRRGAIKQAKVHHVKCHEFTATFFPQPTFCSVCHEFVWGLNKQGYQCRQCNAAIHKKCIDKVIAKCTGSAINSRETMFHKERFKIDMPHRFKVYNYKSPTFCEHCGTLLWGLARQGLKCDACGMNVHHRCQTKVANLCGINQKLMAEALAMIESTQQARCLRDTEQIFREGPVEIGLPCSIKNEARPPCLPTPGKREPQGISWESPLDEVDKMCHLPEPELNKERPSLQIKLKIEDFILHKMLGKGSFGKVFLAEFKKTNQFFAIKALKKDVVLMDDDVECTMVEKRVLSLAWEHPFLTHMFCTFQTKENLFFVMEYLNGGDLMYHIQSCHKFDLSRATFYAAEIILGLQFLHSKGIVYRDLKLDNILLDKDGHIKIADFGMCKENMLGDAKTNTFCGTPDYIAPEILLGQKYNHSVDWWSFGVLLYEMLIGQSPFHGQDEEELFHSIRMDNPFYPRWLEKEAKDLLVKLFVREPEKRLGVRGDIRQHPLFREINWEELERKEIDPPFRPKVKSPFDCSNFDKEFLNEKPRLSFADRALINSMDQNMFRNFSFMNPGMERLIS
# Chain of Serine/threonine-protein kinase haspin (Q8TF76 whole entry, the tested form may be a part): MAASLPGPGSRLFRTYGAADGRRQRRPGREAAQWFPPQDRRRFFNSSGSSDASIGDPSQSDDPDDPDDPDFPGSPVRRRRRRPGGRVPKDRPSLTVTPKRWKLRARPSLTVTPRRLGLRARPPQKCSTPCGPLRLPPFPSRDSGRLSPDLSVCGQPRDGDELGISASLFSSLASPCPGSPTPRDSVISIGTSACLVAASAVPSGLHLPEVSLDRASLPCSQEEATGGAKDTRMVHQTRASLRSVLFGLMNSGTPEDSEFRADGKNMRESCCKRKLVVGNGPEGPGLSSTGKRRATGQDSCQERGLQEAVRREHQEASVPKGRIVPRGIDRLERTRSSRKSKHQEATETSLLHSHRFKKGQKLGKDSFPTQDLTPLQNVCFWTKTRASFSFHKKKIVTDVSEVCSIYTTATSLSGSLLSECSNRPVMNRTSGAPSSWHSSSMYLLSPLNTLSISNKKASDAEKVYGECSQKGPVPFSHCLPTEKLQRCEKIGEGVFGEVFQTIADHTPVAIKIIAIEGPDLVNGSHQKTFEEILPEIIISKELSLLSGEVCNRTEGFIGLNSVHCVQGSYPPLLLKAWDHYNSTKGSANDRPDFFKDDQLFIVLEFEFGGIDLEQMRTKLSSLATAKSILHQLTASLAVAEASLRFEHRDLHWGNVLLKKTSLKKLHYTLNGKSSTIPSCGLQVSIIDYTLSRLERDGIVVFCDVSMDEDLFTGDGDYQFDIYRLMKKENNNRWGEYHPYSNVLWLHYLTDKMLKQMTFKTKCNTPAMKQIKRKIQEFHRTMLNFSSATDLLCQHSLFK
smiles,measurement,setting,value
CC(C)C[C@@H](N)C(=O)Nc1ccc(-c2cnco2)c(OC(F)F)c1,IC50,[1],1330 nM
same,concentration,[2],0.4 µM
same,inhibition,[3],62%
same,IC50,[4],922 nM
same,concentration at 3.167 h,[5],3.4 µM
same,Drug uptake(free),[6],0.92 µM
same,Activity,[7],Active
same,Kp at 4 h,[8],0.5
same,Cp(f),[9],0.01 µM
same,concentration,[10],33 µM
same,IC50,[11],120 nM
same,solubility,[12],5850 µg/mL
same,Activity,[13],6.2%
same,Papp at 4 h,[14],91.8 ×10⁻⁶ cm/s
same,Activity,[15],19%
same,inhibition,[16],Active
same,IC50,[17],12 nM
same,Activity,[18],13%
same,IC50,[19],326 nM
same,concentration,[20],11 µM
same,inhibition,[21],56%

# From ChEMBL document CHEMBL4828715, “Discovery, Structure-Activity Relationships, and In Vivo Evaluation of Novel Aryl Amides as Brain Penetrant Adaptor Protein 2-Associated Kinase 1 (AAK1) Inhibitors for the Treatment of Neuropathic Pain” (J Med Chem, 2021)
